Source: patent US8063095B2, “IAP BIR domain binding compounds” (Pharmascience Inc., priority 2005, dated 2011)
One block for each molecule: values may come before it.

Legend:
[1] = system: MDA-MB-231 (breast) cancer cells; test: Cell viability (MTT) assay, MDA cells; conditions: MTT based assay
Procedure: (§1) MDA-MD-231 (breast) and SKOV-3 (ovarian) cancer cells were cultured in RPMI1640 media supplemented with 10% FBS and 100 units/mL of Penicillin and Steptomycin.
(§2) Viability assays were done on a number of cells including MDA-MB-231, SKOV-3, H460, PC3, HCT-116, and SW480 cells. Cells were seeded in 96 well plates at a respective density of 5000 and 2000 cells per well and incubated at 37° C. in presence of 5% CO2 for 24 hours. Selected compounds were diluted into the media at various concentration ranging from 0.01 uM up to 100 uM. Diluted compounds were added onto the MDA-MB-231 cells. For the MDA-MB-231 SKOV3, H460, PC3, HCT-116, and SW480 cells, the compounds were added either alone or in presence of 1-3 ng/ml of TRAIL. After 72 hours cellular viability was evaluated by MTT based assays.

[2] = system: SKOV-3 (ovarian) cancer cells; test: Cell viability (MTT) assay, SKOV3 cells; conditions: 72 hours, MTT based assay; compounds added either alone or in presence of 1-3 ng/ml of TRAIL
Procedure: as §1, §2

EC50 ([1]; 72 hours): < 1000 nM
SMILES: CN[C@@H](C)C(=O)N[C@@H](CCC(=O)NCCNC(=O)CC[C@H](NC(=O)[C@H](C)NC)C(=O)N1CCC[C@H]1CN(CCc1ccccc1)C(=O)C(F)(F)F)C(=O)N1CCC[C@H]1CN(CCc1ccccc1)C(=O)C(F)(F)F [Compound 18]

EC50 [2]: > 1000 nM
SMILES: CN[C@@H](C)C(=O)N[C@@H](CC(=O)NCCNC(=O)C[C@H](NC(=O)[C@H](C)NC)C(=O)N1CCC[C@H]1CN(CCc1ccccc1)C(=O)C(F)(F)F)C(=O)N1CCC[C@H]1CN(CCc1ccccc1)C(=O)C(F)(F)F [Compound 32]

EC50 ([1]; Homo sapiens, MDA-MB-231, 72 h): < 100 nM
SMILES: CN[C@@H](C)C(=O)N[C@H](C(=O)N1CCC[C@H]1CN(CCc1ccccc1)C(=O)CNCc1ccccc1)[C@@H](C)OCC#CC#CCO[C@H](C)[C@H](NC(=O)[C@H](C)NC)C(=O)N1CCC[C@H]1CN(CCc1ccccc1)C(=O)CNCc1ccccc1 [Compound 10]

EC50 ([1]; Homo sapiens, MDA-MB-231, 72 h): < 100 nM
SMILES: CN[C@@H](C)C(=O)N[C@H](C(=O)N1CCC[C@H]1C(=O)N[C@@H]1CCCc2ccccc21)[C@@H](C)OCCCCCCO[C@H](C)[C@H](NC(=O)[C@H](C)NC)C(=O)N1CCC[C@H]1C(=O)N[C@@H]1CCCc2ccccc21 [Compound 25]

EC50 ([1]; 72 hours): < 100 nM
SMILES: CN[C@@H](C)C(=O)N[C@@H](CCC(=O)NCCNC(=O)CC[C@H](NC(=O)[C@H](C)NC)C(=O)N1CCC[C@H]1CN(CCc1ccccc1)C(=O)C(F)(F)F)C(=O)N1CCC[C@H]1CN(CCc1ccccc1)C(=O)C(F)(F)F [Compound 30]

EC50 [2]: > 1000 nM
SMILES: CN[C@@H](C)C(=O)N[C@@H](CCCNC(=O)NCCC[C@H](NC(=O)[C@H](C)NC)C(=O)N1CCC[C@H]1CN(CCc1ccccc1)S(=O)(=O)c1ccc(F)cc1)C(=O)N1CCC[C@H]1CN(CCc1ccccc1)S(=O)(=O)c1ccc(F)cc1 [Compound 42]

EC50 [2]: < 1000 nM
SMILES: CN[C@@H](C)C(=O)N[C@@H](CCCNC(=O)c1ccc(C(=O)NCCC[C@H](NC(=O)[C@H](C)NC)C(=O)N2CCC[C@H]2CN(CCc2ccccc2)S(=O)(=O)c2ccc(F)cc2)cc1)C(=O)N1CCC[C@H]1CN(CCc1ccccc1)S(=O)(=O)c1ccc(F)cc1 [Compound 45]

EC50 ([1]; 72 hours): < 1000 nM
SMILES: CN[C@@H](C)C(=O)N[C@@H](CCC(=O)NCCNC(=O)CC[C@H](NC(=O)[C@H](C)NC)C(=O)N1CCC[C@H]1CN(CCc1ccccc1)C(=O)C(F)(F)F)C(=O)N1CCC[C@H]1CN(CCc1ccccc1)C(=O)C(F)(F)F [Compound 19]

EC50 ([1]; Homo sapiens, MDA-MB-231, 72 h): < 100 nM
SMILES: CN[C@@H](C)C(=O)NC(CCCNC(=O)c1ccc(C(=O)NCCC[C@H](NC(=O)[C@H](C)NC)C(=O)N2CCC[C@H]2C(=O)N[C@@H]2CCCc3ccccc32)cc1)C(=O)N1CCC[C@H]1C(=O)N[C@@H]1CCCc2ccccc21 (some centres unmarked) [Compound 15]

EC50 [2]: < 100 nM
SMILES: CN[C@@H](C)C(=O)N[C@@H](CCCCNC(=O)C(=O)NCCCC[C@H](NC(=O)[C@H](C)NC)C(=O)N1CCC[C@H]1CN(CCc1ccccc1)C(=O)C(F)(F)F)C(=O)N1CCC[C@H]1CN(CCc1ccccc1)C(=O)C(F)(F)F [Compound 46]

EC50 [2]: < 1000 nM
SMILES: CN[C@@H](C)C(=O)N[C@@H](CCCCNC(=O)NCCCC[C@H](NC(=O)[C@H](C)NC)C(=O)N1CCC[C@H]1CN(CCc1ccccc1)C(=O)C(F)(F)F)C(=O)N1CCC[C@H]1CN(CCc1ccccc1)C(=O)C(F)(F)F [Compound 47]

EC50 [2]: < 100 nM
SMILES: CN[C@@H](C)C(=O)N[C@H](C(=O)N1CCC[C@H]1CN(CCc1ccccc1)C(=O)C(F)(F)F)[C@@H](C)OCCCCCCO[C@H](C)[C@H](NC(=O)[C@H](C)NC)C(=O)N1CCC[C@H]1CN(CCc1ccccc1)C(=O)C(F)(F)F [Compound 36]

EC50 ([1]; Homo sapiens, MDA-MB-231, 72 h): < 1000 nM
SMILES: CNCC(=O)N(CCc1ccccc1)C[C@@H]1CCCN1C(=O)[C@@H](NC(=O)[C@H](C)NC)[C@@H](C)OCC#CC#CCO[C@H](C)[C@H](NC(=O)[C@H](C)NC)C(=O)N1CCC[C@H]1CN(CCc1ccccc1)C(=O)CNC [Compound 27]

SMILES: CN[C@@H](C)C(=O)N[C@H](C(=O)N1CCC[C@H]1CN(CCc1ccccc1)C(=O)CF)[C@@H](C)OCC#CC#CCO[C@H](C)[C@H](NC(=O)[C@H](C)NC)C(=O)N1CCC[C@H]1CN(CCc1ccccc1)C(=O)CF [Compound 29]
EC50 ([1]; Homo sapiens, MDA-MB-231, 72 hours): < 100 nM

EC50 ([1]; 72 hours): < 100 nM
SMILES: CN[C@@H](C)C(=O)N[C@@H](CCC(=O)NCCNC(=O)CC[C@H](NC(=O)[C@H](C)NC)C(=O)N1CCC[C@H]1CN(CCc1ccccc1)C(=O)C(F)(F)F)C(=O)N1CCC[C@H]1CN(CCc1ccccc1)C(=O)C(F)(F)F [Compound 22]

EC50 ([1]; Homo sapiens, MDA-MB-231, 72 h): < 100 nM
SMILES: CN[C@@H](C)C(=O)N[C@H](C(=O)N1CCC[C@H]1CN(CCc1ccccc1)C(C)=O)[C@@H](C)OCC#CC#CCO[C@H](C)[C@H](NC(=O)[C@H](C)NC)C(=O)N1CCC[C@H]1CN(CCc1ccccc1)C(C)=O [Compound 5]

EC50 ([1]; 72 hours): < 100 nM
SMILES: CN[C@@H](C)C(=O)N[C@@H](CCC(=O)NCCNC(=O)CC[C@H](NC(=O)[C@H](C)NC)C(=O)N1CCC[C@H]1CN(CCc1ccccc1)C(=O)C(F)(F)F)C(=O)N1CCC[C@H]1CN(CCc1ccccc1)C(=O)C(F)(F)F [Compound 31]

EC50 ([1]; Homo sapiens, MDA-MB-231, 72 h): < 100 nM
SMILES: CN[C@@H](C)C(=O)N[C@H](C(=O)N1CCC[C@H]1CN(CCc1ccccc1)C(=O)C(C)C)[C@@H](C)OCC#CC#CCO[C@H](C)[C@H](NC(=O)[C@H](C)NC)C(=O)N1CCC[C@H]1CN(CCc1ccccc1)C(=O)C(C)C [Compound 26]

EC50 ([1]; Homo sapiens, MDA-MB-231, 72 h): < 100 nM
SMILES: CN[C@@H](C)C(=O)N[C@@H](COCC#CC#CCOC[C@H](NC(=O)[C@H](C)NC)C(=O)N1CCC[C@H]1CN(CCc1ccccc1)C(=O)C(F)(F)F)C(=O)N1CCC[C@H]1CN(CCc1ccccc1)C(=O)C(F)(F)F [Compound 24]

EC50 ([1]; 72 hours): < 1000 nM
SMILES: CN[C@@H](C)C(=O)N[C@@H](CCC(=O)NCCNC(=O)CC[C@H](NC(=O)[C@H](C)NC)C(=O)N1CCC[C@H]1CN(CCc1ccccc1)C(=O)C(F)(F)F)C(=O)N1CCC[C@H]1CN(CCc1ccccc1)C(=O)C(F)(F)F [Compound 21]

EC50 ([1]; Homo sapiens, MDA-MB-231, 72 h): < 1000 nM
SMILES: CN[C@@H](C)C(=O)N[C@@H](CCC(=O)NCc1ccc(CNC(=O)CC[C@H](NC(=O)[C@H](C)NC)C(=O)N2CCC[C@H]2CN(CCc2ccccc2)C(=O)C(F)(F)F)cc1)C(=O)N1CCC[C@H]1CN(CCc1ccccc1)C(=O)C(F)(F)F [Compound 17]

EC50 ([1]; Homo sapiens, MDA-MB-231, 72 h): < 1000 nM
SMILES: CN[C@@H](C)C(=O)N[C@@H](CC(=O)NCCNC(=O)C[C@H](NC(=O)[C@H](C)NC)C(=O)N1CCC[C@H]1CN(CCc1ccccc1)C(=O)C(F)(F)F)C(=O)N1CCC[C@H]1CN(CCc1ccccc1)C(=O)C(F)(F)F [Compound 35]

EC50 ([1]; Homo sapiens, MDA-MB-231, 72 h): < 100 nM
SMILES: CN[C@@H](C)C(=O)N[C@H](C(=O)N1CCC[C@H]1CN(CCc1ccccc1)C(=O)C(F)F)[C@@H](C)OCC#CC#CCO[C@H](C)[C@H](NC(=O)[C@H](C)NC)C(=O)N1CCC[C@H]1CN(CCc1ccccc1)C(=O)C(F)F [Compound 28]

EC50 ([1]; 72 hours): < 1000 nM
SMILES: CN[C@@H](C)C(=O)N[C@@H](CCC(=O)NCCNC(=O)CC[C@H](NC(=O)[C@H](C)NC)C(=O)N1CCC[C@H]1CN(CCc1ccccc1)C(=O)C(F)(F)F)C(=O)N1CCC[C@H]1CN(CCc1ccccc1)C(=O)C(F)(F)F [Compound 20]

EC50 ([1]; Homo sapiens, MDA-MB-231, 72 h): < 100 nM
SMILES: CN[C@@H](C)C(=O)N[C@@H](CCCNC(=O)NCCC[C@H](NC(=O)[C@H](C)NC)C(=O)N1CCC[C@H]1C(=O)N[C@@H]1CCCc2ccccc21)C(=O)N1CCC[C@H]1C(=O)N[C@@H]1CCCc2ccccc21 [Compound 16]

EC50 ([1]; Homo sapiens, MDA-MB-231, 72 h): < 100 nM
SMILES: CN[C@@H](C)C(=O)N[C@H](C(=O)N1CCC[C@H]1CN(CCc1ccccc1)C(=O)c1ccc(OC)cc1)[C@@H](C)OCC#CC#CCO[C@H](C)[C@H](NC(=O)[C@H](C)NC)C(=O)N1CCC[C@H]1CN(CCc1ccccc1)C(=O)c1ccc(OC)cc1 [Compound 9]
